Starred links: 1 amine or outer side, 2 acyl side, 3 side chain; linkers in the order of their positions; H or OH if unused. Positions of bridges follow the written chain, without caps; N, C: chain ends. Non-standard residues stand in square brackets, D forms with d. Residues, ends and D or L forms follow the SMILES beside them. *: point of attachment. hPhe(3-Cl-4-CF3) = N[C@@H](CCc1ccc(C(F)(F)F)c(Cl)c1)C(=O)O; hPhe(3-F,4-CF3) = N[C@@H](CCc1ccc(C(F)(F)F)c(F)c1)C(=O)O; NMeAla(4-thiazolyl) = CN[C@@H](Cc1cscn1)C(=O)O; Phe(2-CF3) = N[C@@H](Cc1ccccc1C(F)(F)F)C(=O)O; Thiomorpholino(1,1-dioxo) = O=S1(=O)CCN(*)CC1; NMe3Pal(6-Me) = CN[C@@H](Cc1ccc(C)nc1)C(=O)O; NMePhe(4-Cl) = CN[C@@H](Cc1ccc(Cl)cc1)C(=O)O; NMePhe(4-Me) = CN[C@@H](Cc1ccc(C)cc1)C(=O)O; hPhe(4-Cl) = N[C@@H](CCc1ccc(Cl)cc1)C(=O)O; NMedβ3hAla = C[C@H](CC(=O)[*:2])N(C)[*:1]; NMeGly(cPent) = CN[C@H](C(=O)O)C1CCCC1; Phe(3-I) = N[C@@H](Cc1cccc(I)c1)C(=O)O; NMeCha = CN[C@@H](CC1CCCCC1)C(=O)O; Azetidine(3,3-F2) = FC1(F)CN(*)C1; N(isopentyl)Gly = CC(C)CCNCC(=O)O; NMeChg = CN[C@H](C(=O)O)C1CCCCC1; NMeF = CN[C@@H](Cc1ccccc1)C(=O)O; N(CH2CH2)2CF2 = FC1(F)CCN(*)CC1; NMeD = CN[C@@H](CC(=O)O)C(=O)O; NMeL = CN[C@@H](CC(C)C)C(=O)O; NMeV = CN[C@H](C(=O)O)C(C)C; d(β3hA) = C[C@@H](N)CC(=O)O; NMeA = CN[C@@H](C)C(=O)O; NMeAib = CNC(C)(C)C(=O)O; Piperidide = C1CCN(*)CC1; Ac5c = NC1(C(=O)O)CCCC1; Aze = O=C(O)[C@@H]1CCN1; Thp = NC1(C(=O)O)CCOCC1; Isopentyl = CC(C)CC*; Sar = CNCC(=O)O
These compounds were tested against T1, Kras and SOS1 (biotin-tagged human Kras loaded with GDP, His-tagged human SOS1) (Homo sapiens, UniProt P01116, G12D) (assay: Protein-protein interaction inhibition between Kras and SOS1 (KrasGl2D-SOS PPI) using AlphaScreen). Conditions: AlphaScreen; biotin-tagged human Kras loaded with GDP, His-tagged human SOS1; read-out: KRAS G12D-SOS PPI IC50.
T1 construct: made in house; host or cells: E. coli (stated for Kras only)
Type: binding
Summary of the method: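 Binding between SOS1 and Kras is detected as bead-proximity luminescence: illuminate Ni-conjugated donors (680 nm), collect 520-620 nm emission from streptavidin-conjugated acceptors; Kras carries biotin and GDP loaded after purification, SOS1 carries a His tag.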

T1 sequence (P01116 1-188 isoform P01116-2 G12D): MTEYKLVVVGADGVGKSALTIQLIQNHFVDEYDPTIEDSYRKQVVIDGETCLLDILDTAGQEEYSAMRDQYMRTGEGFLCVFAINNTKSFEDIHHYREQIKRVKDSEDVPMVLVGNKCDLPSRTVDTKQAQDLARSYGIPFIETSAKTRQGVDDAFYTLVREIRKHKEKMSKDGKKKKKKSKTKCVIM

Question: `CC[C@H](C)[C@@H]1NC(=O)[C@H](CC(C)C)N(C)C(=O)C[C@@H](C(=O)N2CCS(=O)(=O)CC2)N(C)C(=O)[C@H](C2CCCC2)N(C)C(=O)C2(CCCC2)NC(=O)[C@H](CC(=O)N2CCC(F)(F)CC2)N(C)C(=O)[C@H](CCc2ccc(C(F)(F)F)c(Cl)c2)NC(=O)CN(C)C(=O)[C@H](CC2CCCCC2)N(C)C(=O)[C@@H]2CCN2C(=O)[C@H](C)N(C)C1=O` [Compound 780] ([NMeL]I[NMeA][Aze][NMeCha][Sar][hPhe(3-Cl-4-CF3)][NMeD](N(CH2CH2)2CF2)[Ac5c][NMeGly(cPent)][NMeD]-{Thiomorpholino(1,1-dioxo)}; lactam N-11) was tested. Which IC50 did it give?
Answer: 21 nM

Question: Which IC50 does the source give for `CC[C@H](C)[C@@H]1NC(=O)[C@H](C)N(C)C(=O)C[C@@H](C)NC(=O)[C@H](C(C)C)N(C)C(=O)[C@H](Cc2ccccc2)N(C)C(=O)[C@H](CC(C)C)N(C)C(=O)[C@H](CCc2ccc(C(F)(F)F)c(F)c2)NC(=O)CN(C)C(=O)[C@H](Cc2ccc(Cl)cc2)N(C)C(=O)[C@@H]2CCN2C(=O)CN(C)C1=O` [Compound 782] (cyclo([Aze][NMePhe(4-Cl)][Sar][hPhe(3-F,4-CF3)][NMeL][NMeF][NMeV][d(β3hA)][NMeA]I[Sar])) here?
Answer: 21 nM

Question: With `CC[C@H](C)[C@@H]1NC(=O)[C@H](CC(C)C)N(C)C(=O)C[C@@H](C(=O)N2CCCCC2)N(C)C(=O)[C@H](C2CCCCC2)N(C)C(=O)C2(CCCC2)NC(=O)[C@H](Cc2ccc(C)nc2)N(C)C(=O)[C@H](CCc2ccc(C(F)(F)F)c(Cl)c2)NC(=O)CN(C)C(=O)[C@H](CC2CCCCC2)N(C)C(=O)[C@@H]2CCN2C(=O)CN(C)C1=O` [Compound 786] ([NMeL]I[Sar][Aze][NMeCha][Sar][hPhe(3-Cl-4-CF3)][NMe3Pal(6-Me)][Ac5c][NMeChg][NMeD]-Piperidide; lactam N-11) as the compound, how does the IC50 read?
Answer: 6 nM

Question: Which IC50 does the source give for `CC[C@H](C)[C@@H]1NC(=O)[C@H](CC(C)C)N(C)C(=O)C[C@@H](C(=O)N2CCCCC2)N(C)C(=O)[C@H](CC(C)C)NC(=O)C(C)(C)N(C)C(=O)[C@H](Cc2ccccc2C(F)(F)F)NC(=O)[C@H](Cc2cccc(I)c2)NC(=O)CN(C)C(=O)[C@H](Cc2ccc(C)cc2)N(C)C(=O)[C@@H]2CCN2C(=O)CN(C)C1=O` [Compound 791] ([NMeL]I[Sar][Aze][NMePhe(4-Me)][Sar][Phe(3-I)][Phe(2-CF3)][NMeAib]L[NMeD]-Piperidide; lactam N-11) here?
Answer: 320 nM

Question: With `CC[C@H](C)[C@@H]1NC(=O)[C@H](C)N(C)C(=O)C[C@@H](C(=O)N2CCCCC2)N(C)C(=O)[C@H](C(C)C)N(C)C(=O)[C@H](COC)NC(=O)[C@H](CC(=O)N2CC(F)(F)C2)N(C)C(=O)[C@H](CCc2ccc(C(F)(F)F)c(Cl)c2)NC(=O)CN(C)C(=O)[C@H](CC2CCCCC2)N(C)C(=O)CN(C)C(=O)CN(C)C1=O` [Compound 793] ([NMeA]I[Sar][Sar][NMeCha][Sar][hPhe(3-Cl-4-CF3)][NMeD](Azetidine(3,3-F2))S(Me)[NMeV][NMeD]-Piperidide; lactam N-11) as the compound, how does the IC50 read?
Answer: 24 nM

Question: For `CC(C)CCOC[C@@H]1NC(=O)[C@H](CC(C)C)N(C)C(=O)C[C@@H](C(=O)N2CCCCC2)N(C)C(=O)[C@H](C2CCCCC2)N(C)C(=O)C2(CCCC2)NC(=O)[C@@H]2CCCN2C(=O)[C@H](CCc2ccc(C(F)(F)F)c(Cl)c2)NC(=O)CN(C)C(=O)[C@H](CC2CCCCC2)N(C)C(=O)CN(C)C(=O)CN(C)C1=O` [Compound 794] ([NMeL]S(Isopentyl)[Sar][Sar][NMeCha][Sar][hPhe(3-Cl-4-CF3)]P[Ac5c][NMeChg][NMeD]-Piperidide; lactam N-11), which IC50 is on record?
Answer: 11 nM

Question: With `CC[C@H](C)[C@@H]1NC(=O)[C@H](CC(C)C)N(C)C(=O)C[C@@H](C)NC(=O)[C@H](C(C)C)N(C)C(=O)C2(CCCC2)NC(=O)[C@@H]2CCCN2C(=O)[C@H](CCc2ccc(C(F)(F)F)c(Cl)c2)NC(=O)CN(C)C(=O)[C@H](CC2CCCCC2)N(C)C(=O)CN(CCC(C)C)C(=O)CN(C)C1=O` [Compound 801] (cyclo([Ac5c][NMeV][d(β3hA)][NMeL]I[Sar][N(isopentyl)Gly][NMeCha][Sar][hPhe(3-Cl-4-CF3)]P)) as the compound, how does the IC50 read?
Answer: 450 nM

Question: For `CC[C@H](C)[C@@H]1NC(=O)[C@H](CC(C)C)N(C)C(=O)C[C@@H](C)N(C)C(=O)[C@H](CC(C)C)N(C)C(=O)C2(CCOCC2)NC(=O)[C@@H]2CCCN2C(=O)[C@H](CCc2ccc(Cl)cc2)NC(=O)CN(C)C(=O)[C@H](CC2CCCCC2)N(C)C(=O)CN(C)C(=O)CN(C)C1=O` [Compound 802] (cyclo(I[Sar][Sar][NMeCha][Sar][hPhe(4-Cl)]P[Thp][NMeL][NMedβ3hAla][NMeL])), which IC50 is on record?
Answer: 390 nM

Question: `CC[C@H](C)[C@@H]1NC(=O)[C@H](CC(C)C)N(C)C(=O)C[C@@H](C(=O)N(C)C)N(C)C(=O)[C@H](C2CCCC2)N(C)C(=O)[C@H](C)NC(=O)[C@H](Cc2cscn2)N(C)C(=O)[C@H](CCc2ccc(C(F)(F)F)c(Cl)c2)NC(=O)CN(C)C(=O)[C@H](CC2CCCCC2)N(C)C(=O)[C@@H]2CCN2C(=O)[C@H](C)N(C)C1=O` [Compound 805] ([NMeL]I[NMeA][Aze][NMeCha][Sar][hPhe(3-Cl-4-CF3)][NMeAla(4-thiazolyl)]A[NMeGly(cPent)][NMeD]-NMe2; lactam N-11) was tested. Which IC50 did it give?
Answer: 38 nM

Source: US12371454B2, “Cyclic peptide compound having Kras inhibitory action” (priority 2019, dated 2025)
